Measured values published in patent USRE42890E1, “Furazanobenzimidazoles” (Basilea Pharmaceutica AG, priority 2003, dated 2011).
Like-named read-outs stand apart in the source and are kept apart here.

Assays:
[1] = test system: Jurkat; assay: MTS proliferation assay, Jurkat; assay type: cell-based, human; settings: 72 h incubation, read-out: MTS proliferation assay IC 50 Jurkat
Summary of the method: (§1)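 Absorbance at 492 nm after 3 h with MTS reagent gave the proliferation read-out. Before that, cells in RPMI-1640 complete medium (5% or 10% FCS) were treated 72 h with compound at four final concentrations, 0.3 to 10 μM.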

[2] = test system: HeLa; assay: MTS proliferation assay, HeLa; assay type: cell-based, human; settings: 72 h incubation, read-out: MTS proliferation assay IC 50 HeLa
Summary of the method: as §1

[3] = test system: Jily; assay: MTS proliferation assay, Jily; assay type: cell-based; settings: 72 h incubation, read-out: MTS proliferation assay IC 50 Jily
Summary of the method: (§2)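 Read-out: MTS absorbance at 492 nm after 3 h reagent incubation. Before that, cells grew 72 h at 37° C/7.5% CO2 with test compounds at final concentrations of 10 μM, 3 μM, 1 μM and 0.3 μM, added 24 h post-seeding.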

[4] = test system: adherent cells or suspension cells; assay: Hoechst 33342 nuclear staining (fraction of apoptotic nuclei); assay type: cell-based; set-up: key: 0 relating to no activity; 1 relating to weak activity comprising less than 70% of the cells; score 2 relating to strong activity comprising more than 70% of the cells
[5] = test system: HT1080; assay: MTS proliferation assay, HT1080; assay type: cell-based, human; settings: HT1080, 72 h incubation, read-out: MTS proliferation assay IC 50 HT1080
Summary of the method: as §1

[6] = test system: MRC5; assay: MTS proliferation assay, MRC5; assay type: cell-based; settings: MRC5, 72 h incubation, read-out: MTS proliferation assay IC 50 MRC5
Summary of the method: as §2

IC50 ([1]; Homo sapiens) | Compound | IC50 [3] | Hoechst 33342 nuclear staining score ([4]; H460, conc 0.01 μm) | Hoechst 33342 nuclear staining score ([4]; H460, conc 0.1 μm) | Hoechst 33342 nuclear staining score ([4]; H460, conc 1 μm) | Hoechst 33342 nuclear staining score ([4]; HeLa, conc 0.01 μm) | Hoechst 33342 nuclear staining score ([4]; HeLa, conc 0.1 μm) | Hoechst 33342 nuclear staining score ([4]; HeLa, conc 1 μm) | Hoechst 33342 nuclear staining score ([4]; Jily, conc 0.01 μm) | Hoechst 33342 nuclear staining score ([4]; Jily, conc 0.1 μm) | Hoechst 33342 nuclear staining score ([4]; Jily, conc 1 μm) | Hoechst 33342 nuclear staining score ([4]; Jurkat, conc 0.01 μm) | Hoechst 33342 nuclear staining score ([4]; Jurkat, conc 0.1 μm) | Hoechst 33342 nuclear staining score ([4]; Jurkat, conc 1 μm) | Hoechst 33342 nuclear staining score ([4]; MRC5, conc 0.01 μm) | Hoechst 33342 nuclear staining score ([4]; MRC5, conc 0.1 μm) | Hoechst 33342 nuclear staining score ([4]; MRC5, conc 1 μm) | Hoechst 33342 nuclear staining score ([4]; PBLs, conc 0.01 μm) | Hoechst 33342 nuclear staining score ([4]; PBLs, conc 0.1 μm) | Hoechst 33342 nuclear staining score ([4]; PBLs, conc 1 μm) | also measured
0.1 to 1 µM | Nc1nonc1-c1nc2ccccc2n1COc1ccccc1 [Example 7, 4-(1-Phenoxymethyl-1H-benzimidazol-2-yl)-furazan-3-ylamine] | 0.1 to 1 µM | 0 | 0 | 2 (score 2 relating to strong activity comprising more than 70% of the cells) | 0 | 0 | 2 (score 2 relating to strong activity comprising more than 70% of the cells) | 0 | 0 | 2 (score 2 relating to strong activity comprising more than 70% of the cells) | 0 | 0 | 2 (score 2 relating to strong activity comprising more than 70% of the cells) | 0 | 0 | 0 | 0 | 0 | 0 | IC50 ([2]; Homo sapiens): 0.1 to 1 µM; IC50 ([5]; Homo sapiens, HT-1080): 0.1 to 1 µM; IC50 ([6]; Homo sapiens): 0.1 to 1 µM
 | Nc1nonc1-c1nc2ccccc2n1CC(=O)c1ccc(F)cc1 [Example 67] | 0.01 to 0.1 µM | 0 | 0 | 2 (score 2 relating to strong activity comprising more than 70% of the cells) | 0 | 0 | 2 (score 2 relating to strong activity comprising more than 70% of the cells) | 0 | 2 (score 2 relating to strong activity comprising more than 70% of the cells) | 2 (score 2 relating to strong activity comprising more than 70% of the cells) | 0 | 2 (score 2 relating to strong activity comprising more than 70% of the cells) | 2 (score 2 relating to strong activity comprising more than 70% of the cells) | 0 | 0 | 1 (1 relating to weak activity comprising less than 70% of the cells) | 0 | 0 | 0 | IC50 [1]: 0.1 to 1 µM; IC50 [2]: 0.1 to 1 µM; IC50 [5]: 0.1 to 1 µM; IC50 [6]: 0.1 to 1 µM
 | Nc1nonc1-c1nc2ccccc2n1CC(=O)c1ccc(Cl)nc1 [Example 70] | < 0.01 µM | 1 (1 relating to weak activity comprising less than 70% of the cells) | 2 (score 2 relating to strong activity comprising more than 70% of the cells) | 2 (score 2 relating to strong activity comprising more than 70% of the cells) | 0 | 2 (score 2 relating to strong activity comprising more than 70% of the cells) | 2 (score 2 relating to strong activity comprising more than 70% of the cells) | 2 (score 2 relating to strong activity comprising more than 70% of the cells) | 2 (score 2 relating to strong activity comprising more than 70% of the cells) | 2 (score 2 relating to strong activity comprising more than 70% of the cells) | 2 (score 2 relating to strong activity comprising more than 70% of the cells) | 2 (score 2 relating to strong activity comprising more than 70% of the cells) | 2 (score 2 relating to strong activity comprising more than 70% of the cells) | 1 (1 relating to weak activity comprising less than 70% of the cells) | 2 (score 2 relating to strong activity comprising more than 70% of the cells) | 2 (score 2 relating to strong activity comprising more than 70% of the cells) | 0 | 0 | 0 | IC50 [1]: < 0.01 µM; IC50 [2]: < 0.01 µM; IC50 [5]: < 0.01 µM; IC50 [6]: < 0.01 µM
0.1 to 1 µM | Nc1ccc(C(=O)Cn2c(-c3nonc3NCCC(=O)O)nc3ccccc32)cc1 [Example 13, 4-[1-(4-Aminophenacyl)-1H-benzimidazol-2-yl]-furazan-3-yl-N-(2-carboxyethyl)-amine] | 0.1 to 1 µM | 0 | 0 | 2 (score 2 relating to strong activity comprising more than 70% of the cells) | 0 | 0 | 2 (score 2 relating to strong activity comprising more than 70% of the cells) | 0 | 0 | 2 (score 2 relating to strong activity comprising more than 70% of the cells) | 0 | 0 | 2 (score 2 relating to strong activity comprising more than 70% of the cells) | 0 | 0 | 2 (score 2 relating to strong activity comprising more than 70% of the cells) | 0 | 0 | 0 | IC50 ([2]; Homo sapiens): 0.1 to 1 µM; IC50 ([5]; Homo sapiens, HT-1080): 0.1 to 1 µM; IC50 ([6]; Homo sapiens): 0.1 to 1 µM
